We go through 19 molecules from patent US20050038072A1, “Nitrogeneous cyclic ketone derivative, process for producing the same, and use” (Takeda Chemical Industries, Ltd., priority 2001, published 2005).

The structures appear in SMILES notation. Where a name gives a salt, the structure may show the parent alone.

One data set deals with T1, substance P receptor (Homo sapiens, UniProt P25103).
T1 construct: endogenous in cells; host or cells: IM-9 human lymphoblast cells (membrane preparation)
T1 sequence (P25103 whole entry): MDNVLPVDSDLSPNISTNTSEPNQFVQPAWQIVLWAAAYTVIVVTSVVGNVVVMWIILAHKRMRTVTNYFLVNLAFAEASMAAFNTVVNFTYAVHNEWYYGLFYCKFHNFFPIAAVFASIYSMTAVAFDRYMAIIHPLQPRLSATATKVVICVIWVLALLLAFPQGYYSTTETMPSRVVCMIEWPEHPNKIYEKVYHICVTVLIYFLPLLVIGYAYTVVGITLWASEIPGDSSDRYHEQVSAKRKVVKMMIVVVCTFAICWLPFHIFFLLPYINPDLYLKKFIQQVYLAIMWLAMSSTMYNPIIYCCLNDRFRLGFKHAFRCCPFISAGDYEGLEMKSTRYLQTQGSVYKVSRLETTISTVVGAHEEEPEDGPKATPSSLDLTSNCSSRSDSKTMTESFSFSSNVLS
In words: Radioligand receptor binding inhibiting activity (binding inhibitory activity using receptor from human lymphoblast cell (IM-9)). Particulars: radioligand [125I]-labeled substance P (125I-BHSP), 25° C., 30 minutes. As for the experimental part: Radioligand receptor binding inhibiting activity (binding inhibitory activity using receptor from human lymphoblast cell (IM-9))
A modified method by M. A. Cascieri et al (Molecular Pharmacology, Vol. 42, p. 458 (1992)) was employed. The receptor was prepared from a human lymphoblast cell (IM-9). After inoculation of IM-9 cells (2×10^5 cells/ml), the cells were cultured for 3 days (1L), and then the culture was centrifuged at 500×G for 5 minutes to obtain a cell pellet. The resultant pellet was washed once with a phosphate buffer (FLOW LABORATORIES, CAT. No. 28-103-05), fractured in 30 ml of a 50 mM Tris-HCl buffer (pH 7.4) containing 120 mM sodium chloride, 5 mM potassium chloride, 2 μg/ml chymostatin, 40 μg/ml bacitracin, 5 μg/ml phosphoramidone, 0.5 mM phenylmethylsulfonyl fluoride and 1 mM ethylenediamine tetraacetic acid using a polytron homogenizer (Kinematika, Germany), and centrifuged at 40,000×G for 20 minutes. The separated material was washed twice with 30 ml of the buffer solution described above and stored frozen as a receptor standard preparation (−80° C.)
This preparation was suspended in a reaction buffer [50 mM Tris-HCl buffer (pH 7.4), 0.02% bovine serum albumin, 1 mM phenylmethylsulfonyl fluoride, 2 μg/ml of chymostatin, 40 μg/ml bacitracin, 3 mM manganese chloride] at a protein concentration of 0.5 mg/ml and a 100 μl portion was used for the reaction. The sample, 125I-BHSP (0.46 KBq) was also added and the mixture was reacted in a 0.2 ml reaction buffer at 25° C. for 30 minutes. A non-specific binding level was measured by adding substance P at 2×10^−6 M.
After the reaction, a Cell Harvester [290PHD manufactured by Cambridge Technology, Inc, USA] was used to conduct a rapid filtration over a glass filter [GF/B manufactured by Whatman, USA] whereby terminating the reaction, followed by washing three times with 250 μl of a 50 mM Tris-HCl buffer solution (pH 7.4) containing 0.02% bovine serum albumin. Then, the radioactivity remaining on the filter was counted with a gamma counter. The filter was used after immersing in a 0.1% polyethylene imine over a whole day and night followed by drying in air.
The radioligand means [^125I]-labeled substance P.
Broadly, the IC50 is the point on the concentration scale where inhibition reaches its midpoint. With `COc1ccc(Br)cc1CN1CCC(=O)C(C(c2ccc(F)cc2)c2ccc(F)cc2)C1` (single isomer, unassigned; (-)) [Example 163, (−)-3-[Bis(4-fluorophenyl)methyl]-1-(5-bromo-2-methoxybenzyl)-4-piperidinone], the IC50 was 0.62 nM. With `CCOc1ccccc1CN1CCC(=O)C(C(c2ccc(F)cc2)c2ccc(F)cc2)C1` (centres unmarked) [Example 98, 3-[Bis(4-fluorophenyl)methyl]-1-(2-ethoxybenzyl)-4-piperidinone], the IC50 turned out to be 0.85 nM.

Molecule `CCOc1ccccc1CN1CCC(=O)C(C(c2ccccc2)c2ccccc2)C1` (centres unmarked) [Example 99, 3-Benzhydryl-1-(2-ethoxybenzyl)-4-piperidinone] registered an IC50 of 0.44 nM. With `COc1ccc(OC(F)(F)F)cc1CN1CCC(=O)C(C(c2ccccc2)c2ccccc2)C1` (centres unmarked) [Example 168, 3-Benzhydryl-1-[2-methoxy-5-(trifluoromethoxy)benzyl]-4-piperidinone], the half-inhibitory concentration (IC50) was 0.34 nM. With `COc1ccc(C(C)C)cc1CN1CCC(=O)C(C(c2ccccc2)c2ccccc2)C1` (centres unmarked) [Example 175, 3-Benzhydryl-1-(5-isopropyl-2-methoxybenzyl)-4-piperidinone], the concentration for half-maximal inhibition (IC50) amounted to 0.42 nM. Turning to `COc1ccc(NS(C)(=O)=O)cc1CN1CCC(=O)C(C(c2ccccc2)c2ccccc2)C1` (centres unmarked) [Example 183, N-[3-[(3-Benzhydryl-4-oxo-1-piperidinyl)methyl]-4-methoxyphenyl]methanesulfonamide], the concentration for half-maximal inhibition (IC50) turned out to be 0.26 nM. For `CCOc1ccc([N+](=O)[O-])cc1CN1CCC(=O)C(C(c2ccccc2)c2ccccc2)C1` (centres unmarked) [Example 185, 3-Benzhydryl-1-(2-ethoxy-5-nitrobenzyl)-4-piperidinone], the IC50 worked out at 0.29 nM.

Test system in the next data set: not given
Experiment: not given
Settings: not given
Broadly, the melting point is the temperature, or range, at which the solid turns liquid. `O=C1CCNCC1C(c1ccccc1)c1ccccc1F` (centres unmarked) (as salt: hydrochloride): the melting point fell in the range of 204 to 205 °C. `O=C1CCN(Cc2ccccc2)CC1C(c1ccccc1)c1ccccc1F` (centres unmarked) (as salt: hydrochloride) [Example 157, 1-Benzyl-3-[(2-fluorophenyl)(phenyl)methyl]-4-piperidinone] gave a melting point of 214 to 215 °C.

`O=C1CCN(Cc2ccccc2)CC1C(c1ccc(Cl)cc1)c1ccccc1Cl` (centres unmarked) (as salt: hydrochloride) [Example 158, 1-Benzyl-3-[(2-chlorophenyl)(4-chlorophenyl)methyl]-4-piperidinone] showed a melting point of 190 to 191 °C. The molecule `COc1ccc(OC(F)(F)F)cc1CN1CCC(=O)C(C(c2ccccc2)c2ccccc2)C1` (centres unmarked) (as salt: hydrochloride) [Example 168, 3-Benzhydryl-1-[2-methoxy-5-(trifluoromethoxy)benzyl]-4-piperidinone] had a melting point of 174 to 175 °C. `O=C1CN(Cc2ccccc2)CCC1C(c1ccc(F)cc1)c1ccc(F)cc1` (centres unmarked) (as salt: hydrochloride) [Example 195, 1-Benzyl-4-[bis(4-fluorophenyl)methyl]-3-piperidinone] gave a melting point of 177.5 to 179 °C. In the case of `O=C1CNCCC1C1c2ccccc2CCc2ccccc21` (centres unmarked) (as salt: hydrochloride) [Example 198, 4-(10,11-Dihydro-5H-dibenzo[a,d][7]annulen-5-yl)-3-piperidinone], the melting point is 196 to 198 °C (dec.). As to `COc1ccc2ccccc2c1CN1CCC(=O)C(C(c2ccc(F)cc2)c2ccc(F)cc2)C1` (centres unmarked) [Example 148, 3-[Bis(4-fluorophenyl)methyl]-1-[(2-methoxy-1-naphthyl)methyl]-4-piperidinone], the melting point is 125 to 126 °C.

`COc1c(CN2CCC(=O)C(C(c3ccccc3)c3ccccc3)C2)cc(C(C)(C)C)cc1C(C)(C)C` (centres unmarked) [Example 161, 3-Benzhydryl-1-(3,5-di-tert-butyl-2-methoxybenzyl)-4-piperidinone] had a melting point of 136 to 138 °C. Take `CCOc1cccc(OC)c1CN1CCC(=O)C(C(c2ccccc2)c2ccccc2)C1` (centres unmarked) [Example 170, 3-Benzhydryl-1-(2-ethoxy-6-methoxybenzyl)-4-piperidinone]: the melting point fell in the range of 137 to 138 °C. In turn, `COc1ccc([N+](=O)[O-])cc1CN1CCC(=O)C(C(c2ccccc2)c2ccccc2)C1` (centres unmarked) [Example 176, 3-Benzhydryl-1-(2-methoxy-5-nitrobenzyl)-4-piperidinone] showed a melting point of 119 to 120 °C.

`COc1ccc(N(S(C)(=O)=O)S(C)(=O)=O)cc1CN1CCC(=O)C(C(c2ccccc2)c2ccccc2)C1` (centres unmarked) [Example 178, N-[3-[(3-Benzhydryl-4-oxo-1-piperidinyl)methyl]-4-methoxyphenyl]-N-(methylsulfonyl)methanesulfonamide] yielded a melting point of 132 to 135 °C. The molecule `COc1ccc(NS(C)(=O)=O)cc1CN1CCC(=O)C(C(c2ccccc2)c2ccccc2)C1` (centres unmarked) [Example 183, N-[3-[(3-Benzhydryl-4-oxo-1-piperidinyl)methyl]-4-methoxyphenyl]methanesulfonamide] gave a melting point of 132 to 135 °C.

Molecule `O=C1CCN(Cc2cc([N+](=O)[O-])ccc2O)CC1C(c1ccccc1)c1ccccc1` (centres unmarked) [Example 184, 3-Benzhydryl-1-(2-hydroxy-5-nitrobenzyl)-4-piperidinone] had a melting point of 177 to 178 °C.
